Assay results published in US20260256723A1, “THIOL-BASED COMPOUNDS AND COMPOSITIONS AND USES THEREOF” (CASE WESTERN RESERVE UNIVERSITY, priority 2022, published 2026).
Values joined by “and” are separate entries in the source; they are usually repeats but may differ in a detail not shown here. Identical values can stand only once. “Also recorded” adds a separate entry of the source. Like-named read-outs stand apart in the source and are kept apart here.

Columns and labels:
[1] = tested on: freely moving rats injected with morphine; experiment: Ventilatory responses to morphine and subsequent injections of L-NACme; assay type: in vivo, rat
[2] = tested on: unanesthetized rats receiving continuous intravenous infusion of fentanyl; set-up: species or system Sprague Dawley rat; conditions: rat, in vivo
[3] = tested on: unanesthetized rats receiving continuous intravenous infusion of fentanyl; set-up: species or system Sprague Dawley rat; conditions: rat, in vivo; remark: listed apart in the source
[4] = tested on: rats given bolus injections of fentanyl or morphine; conditions: rat, in vivo
[5] = tested on: unanesthetized rats receiving continuous intravenous infusion of fentanyl; set-up: species or system Sprague Dawley rat; conditions: rat, in vivo; remark: listed apart in the source
[6] = tested on: rats receiving infusion of fentanyl; set-up: species or system Sprague-Dawley rat; conditions: rat, in vivo
[7] = tested on: unanesthetized rats receiving continuous intravenous infusion of fentanyl; set-up: species or system Sprague Dawley rat; conditions: rat, in vivo; remark: listed apart in the source
[8] = after morphine 10 mg/kg IV, two injections of L-NACme 500 μmol/kg IV
[9] = before morphine, group later given L-NACme
[10] = morphine 10 mg/kg IV, before L-NACme

Structure (SMILES): CCOC(=O)[C@H](CS)NC(C)=O [L-NACme, N-acetyl-L-cysteine ethyl ester]
- Frequency, Drug - entire 75 min, % change [1, 8]: +11 ± 2 %
- Minute Ventilation, Drug - entire 75 min, % change [1, 8]: −19 ± 4 %
- Tidal Volume, Drug - entire 75 min, % change [1, 8]: −22 ± 3 %
- Frequency, Pre values [1, 9]: 98 ± 4
- Minute Ventilation, Pre values [1, 9]: 259 ± 17
- Tidal Volume, Pre values [1, 9]: 2.61 ± 0.16
- Frequency, Morphine - first 15 min response (%) [1, 10]: −4.9 ± 2.8%
- Frequency, Morphine - peak (+) response (%) [1, 10]: +42 ± 6 %
- Frequency, Morphine peak (−) response (%) [1, 10]: −22 ± 4 %
- Minute Ventilation, Morphine - first 15 min response (%) [1, 10]: −35 ± 3 %
- Minute Ventilation, Morphine - peak (+) response (%) [1, 10]: +20 ± 6 %
- Minute Ventilation, Morphine peak (−) response (%) [1, 10]: −54 ± 4 %
- Tidal Volume, Morphine - first 15 min response (%) [1, 10]: −34 ± 3 %
- Tidal Volume, Morphine - peak (+) response (%) [1, 10]: −16 ± 6 %
- Tidal Volume, Morphine peak (−) response (%) [1, 10]: −40 ± 6 %

Structure (SMILES): CC(=O)N[C@@H](CS)C(=O)O [L-NAC, N-acetyl-L-cysteine]
- Righting reflex, time to get back on all four paws [2]: 4.6 ± 1.5 s
- A-a gradient [3]: 17.9 ± 0.7 mmHg
- Arterial blood pH [3]: 7.442 ± 0.008
- Beneficial effects on ABG chemistry and A-a gradient (words, FIG. 9) [3]: still evident 30 min after the second injection of L-NAC
- pCO2 [3]: 35.7 ± 0.03 mmHg
- pO2 [3]: 92.1 ± 0.07 mmHg
- sO2 [3]: 99.0 ± 0.4%
- A-a gradient ([3]; iv): 27.6 ± 0.8 mmHg and 23.1 ± 1.3 mmHg and 26.1 ± 1.5 mmHg
- Arterial blood pH ([3]; iv): 7.162 ± 0.026 and 7.392 ± 0.006 and 7.443 ± 0.013
- pCO2 ([3]; iv): 57.3 ± 1.5 mmHg and 36.2 ± 1.1 mmHg and 35.2 ± 0.4 mmHg
- pO2 ([3]; iv): 58.4 ± 1.9 mmHg and 86.3 ± 1.6 mmHg and 84.5 ± 1.4 mmHg
- sO2 ([3]; iv): 59.1 ± 1.8% and 93.6 ± 0.9% and 92.4 ± 1.2%
- Effect of bolus L-NAC on bolus opioid [4]: completely without effect
- Actual TFL values [5]: 11.9 ± 0.1 s and 11.5 ± 0.1 s
- Fecal output, number of pellets, total weight (words, FIG. 13C-D) [6]: normalized by L-NAC injections
- Urine and fecal parameters (words, FIG. 13) [6]: did not affect parameters in vehicle-infused rats
- EEP, actual value [7]: 45.4 ms
- EF50, baseline [7]: 0.36 ± 0.03 mL/s
- EIP, actual value [7]: 7.9 ms
- Effect on Freq, TV and MV (words, FIG. 1) [7]: immediate and sustained increase in these parameters to levels approaching (Freq and MV) and actually reaching (TV) pre-infusion levels; also recorded: did not further boost Freq whereas it did boost TV and therefore MV
- Effect on NEBI (words, FIG. 11) [7]: noticeable decrease in NEBI
- Effect on PEF (words, FIG. 4) [7]: substantial and sustained increases in PEF
- Effect on PIF (words, FIG. 4) [7]: sustained partial recover of PIF
- Effect on Te (words, FIG. 2) [7]: prevented this increase in Te
- Effect on Ti/Te (words, FIG. 2) [7]: sustained elevation in Ti/Te compared to vehicle-injected rats
- Effect on expiratory drive (words, FIG. 5) [7]: immediate, substantial and sustained increases in expiratory dive
- End Expiratory Pause, baseline [7]: 44.3 ± 4.0
- ExpD TV/Te, actual value [7]: 5.5 mL/s
- Expiratory Drive (TV/Te), baseline [7]: 5.5 ± 0.3 mL/s
- Expiratory Time (Te), baseline [7]: 0.443 ± 0.022 s
- Freq, actual value [7]: 102 breaths/min
- Frequency of Breathing (Freq), baseline [7]: 102 ± 5 breaths/min
- InspD (TV/Ti), actual value [7]: 12.4 mL/s
- Inspiratory Drive (TV/Ti), baseline [7]: 12.4 ± 0.6 mL/s
- Inspiratory Time (Ti), baseline [7]: 0.200 ± 0.010 s
- Level of NEBI (words, FIG. 11) [7]: not noticeably different from those that received the second injection of vehicle
- MV, actual value [7]: 247 mL/min
- Minute Ventilation, baseline [7]: 247 ± 14 mL/min
- NEBI, actual value [7]: 2.6%
- PEF, actual value [7]: 11.2
- PIF/PEF, actual value [7]: 1.61
- PIF/PEF, baseline [7]: 1.63 ± 0.11
- Pause, (Te/RT) − 1, baseline [7]: 0.40 ± 0.08
- Pause, (Te/RT)-1, actual value [7]: 0.40
- Peak Expiratory Flow (PEF), baseline [7]: 11.2 ± 0.7 mL/s
- Peak Inspiratory Flow (PIF), baseline [7]: 17.6 ± 1.1 mL/s
- RT, actual value [7]: 0.32 s
- Relaxation Time (RT), baseline [7]: 0.32 ± 0.02 s
- TV, actual value [7]: 2.42 mL
- Te − RT, baseline [7]: 0.12 ± 0.02
- Te, actual value [7]: 0.44 s
- Te-RT, actual value [7]: 0.12
- Ti, actual value [7]: 0.20 s
- Ti/Te, actual value [7]: 0.46
- Ti/Te, baseline [7]: 0.46 ± 0.02
- Tidal Volume, baseline [7]: 2.42 ± 0.05 mL
- Total (cumulative) change in NEBI (words, FIG. 7) [7]: virtually eliminated NEBI
- Total (cumulative) change in PEF (words, FIG. 7) [7]: pronounced increase in PEF
- Total (cumulative) change in expiratory drive (words, FIG. 7) [7]: converted the decrease in expiratory drive (ExpD) to an increase
- EF50, total percent change ([7]; iv): +57.6 ± 11.3%
- EIP, actual value ([7]; iv): 20.2 ms and 19.7 ms
- EIP, arithmetic change ([7]; iv): +12 msec
- End Expiratory Pause, total percent change ([7]; iv): +9.1 ± 6.3%
- End Inspiratory Pause, total percent change ([7]; iv): +147.0 ± 12.9%
- ExpD TV/Te, actual value ([7]; iv): 4.6 mL/s and 6.9 mL/s and 8.1 mL/s
- Expiratory Drive (TV/Te), total percent change ([7]; iv): −14.6 ± 3.1%
- Expiratory Time (Te), total percent change ([7]; iv): −10.3 ± 3.5%
- Freq, actual value ([7]; iv): 78 breaths/min and 90 breaths/min and 89 breaths/min
- Frequency of Breathing (Freq), total percent change ([7]; iv): −21.6 ± 2.4%
- InspD (TV/Ti), actual value ([7]; iv): 4.8 mL/s and 6.6 mL/s and 7.9 mL/s
- Inspiratory Drive (TV/Ti), total percent change ([7]; iv): −56.3 ± 2.7%
- Inspiratory Time (Ti), total percent change ([7]; iv): +82.5 ± 14.1%
- MV, actual value ([7]; iv): 135 mL/min and 210 mL/min and 241 mL/min
- Minute Ventilation, total percent change ([7]; iv): −39.9 ± 2.7%
- NEBI, actual value ([7]; iv): 2.0% and 1.0% and 1.3%
- NEBI, arithmetic change ([7]; iv): −0.6% and −1.6% and −1.3%
- PEF, actual value ([7]; iv): 11.2 and 13.8 and 15.3
- PIF/PEF, actual value ([7]; iv): 0.82 and 0.84 and 0.93
- PIF/PEF, total percent change ([7]; iv): −42.1 ± 4.7%
- Pause, (Te/RT) − 1, total percent change ([7]; iv): +348.6 ± 67.4%
- Pause, (Te/RT)-1, actual value ([7]; iv): 1.32 and 0.94
- Peak Expiratory Flow (PEF), total percent change ([7]; iv): −2.2 ± 2.8%
- Peak Inspiratory Flow (PIF), total percent change ([7]; iv): −44.0 ± 3.7%
- RT, actual value ([7]; iv): 0.17 s and 0.18 s
- Relaxation Time (RT), total percent change ([7]; iv): −41.4 ± 4.6%
- TV, actual value ([7]; iv): 1.73 mL and 2.34 mL and 2.71 mL
- Te − RT, total percent change ([7]; iv): +129.9 ± 28.2%
- Te, actual value ([7]; iv): 0.38 s and 0.34 s
- Te-RT, actual value ([7]; iv): 0.21 and 0.17 and 0.16
- Ti, actual value ([7]; iv): 0.36 s and 0.35 s
- Ti/Te, actual value ([7]; iv): 0.96 and 1.06 and 1.05
- Ti/Te, total percent change ([7]; iv): +104.4 ± 11.6%
- Tidal Volume, total percent change ([7]; iv): −23.5 ± 2.5%
